{"source": "paper PMC5063953", "about": "(Biochemical Pharmacology, 2016)", "origin": "cited, not measured here", "molecules": {"B1": {"name": "parathyroid hormone (peptide, UniProt P01270 32-115, looked up)", "Parathyroid hormone": "SVSEIQLMHNLGKHLNSMERVEWLRKKLQDVHNFVALGAPLAPRDAGSQRPRKKEDNVLVESHEKSLGEADKADVNVLTKAKSQ", "modifications": "Parathyroid hormone"}}, "key": {"hCRF-1R": {"tested_on": "hCRF-1R", "conditions": "ref [44], cited from earlier work"}, "hVPAC1R": {"tested_on": "hVPAC1R", "conditions": "cited from earlier work"}, "hVPAC2R": {"tested_on": "hVPAC2R", "conditions": "ref [35], cited from earlier work"}, "hCLR-RAMP3": {"tested_on": "hCLR-RAMP3", "conditions": "ref [60], cited from earlier work"}, "hCLR-RAMP2": {"tested_on": "hCLR-RAMP2", "conditions": "ref [60], cited from earlier work"}, "hCLR-RAMP1": {"tested_on": "hCLR-RAMP1", "conditions": "cited from earlier work"}, "rSecR": {"tested_on": "rSecR", "conditions": "ref [14], cited from earlier work"}, "SecR": {"tested_on": "SecR", "conditions": "R2.46A; ref [17]; cited from earlier work"}, "hSecR": {"tested_on": "hSecR", "conditions": "cited from earlier work"}, "hGCGR": {"tested_on": "hGCGR", "conditions": "ref [15], cited from earlier work"}, "rGCGR": {"tested_on": "rGCGR", "conditions": "ref [52], cited from earlier work"}, "oPTH-1R": {"tested_on": "oPTH-1R", "conditions": "ref [57], cited from earlier work"}}, "note": "Read-outs that look alike come from different tables or passages of the source. No end group written: not given here.", "data": [{"molecule": "urocortin: agonist at hCRF-1R (DNPSLSIDLTFHLLRTLLELARTQSQRERAEQNRIIFDSV; ends and bridges not checked; UniProt P55089 83-122, looked up)", "values": [{"measurement": "Effect compared with WT: IP3 (Gq)", "setting": "hCRF-1R; K6.40A", "value": "reduced IP3 (Gq)"}, {"measurement": "Effect compared with WT: cAMP (Gs)", "setting": "hCRF-1R; K6.40A", "value": "Increased urocortin mediated cAMP (Gs)"}]}, {"molecule": "vasoactive intestinal polypeptide [VIP]", "values": [{"measurement": "Effect compared with WT: cAMP production", "setting": "hVPAC1R; E7.63A, ref [13]", "value": "Decreased VIP mediated cAMP production"}, {"measurement": "Effect compared with WT: cAMP production", "setting": "hVPAC1R; R6.37A, ref [13]", "value": "No effect on VIP mediated cAMP production"}, {"measurement": "Effect compared with WT: IP3 production", "setting": "hVPAC1R; R6.40A, ref [36]", "value": "Reduced VIP mediated IP3 production"}, {"measurement": "Effect compared with WT: cAMP", "setting": "hVPAC1R; R6.40A, ref [36]", "value": "no effect on cAMP"}, {"measurement": "Effect compared with WT: cAMP production", "setting": "hVPAC1R; Y3.53A, ref [55]", "value": "Reduced VIP mediated cAMP production"}, {"measurement": "Effect compared with WT: cAMP", "setting": "hVPAC1R; Y6.35A, ref [13]", "value": "No effect on VIP mediated cAMP"}, {"measurement": "Effect compared with WT: cAMP potency", "setting": "hVPAC2R; R6.37A", "value": "Reduced VIP mediated cAMP potency"}, {"measurement": "Effect compared with WT: cAMP potency", "setting": "hVPAC2R; R6.40A", "value": "Reduced VIP mediated cAMP potency"}]}, {"molecule": "adrenomedullin: agonist at CLR-RAMP2 or CLR-RAMP3 complexes (YRQSMNNFQGLRSFGCRFGTCTVQKLAHQIYQFTDKDKDNVAPRSKISPQGY; ends and bridges not checked; cysteine pairing not given here; UniProt P35318 95-146, looked up)", "values": [{"measurement": "Effect compared with WT: cAMP production", "setting": "hCLR-RAMP3; K3.30A", "value": "Reduced adrenomedullin cAMP production"}, {"measurement": "Effect compared with WT: cAMP production", "setting": "hCLR-RAMP3; R4.64A", "value": "Reduced adrenomedullin mediated cAMP production"}, {"measurement": "function upon mutation of R4.64, in words", "setting": "hCLR-RAMP3; R4.64 mutated, [63]", "value": "altered adrenomedullin function"}, {"measurement": "Effect compared with WT: cAMP production", "setting": "hCLR-RAMP2; K3.30A", "value": "Reduced adrenomedullin cAMP production"}, {"measurement": "Effect compared with WT: cAMP production", "setting": "hCLR-RAMP2; R4.64A", "value": "Reduced adrenomedullin mediated cAMP production"}, {"measurement": "function upon mutation of R4.64, in words", "setting": "hCLR-RAMP2; R4.64 mutated, [63]", "value": "altered adrenomedullin function"}]}, {"molecule": "calcitonin gene related peptide [CGRP]", "values": [{"measurement": "Effect compared with WT: cAMP potency", "setting": "hCLR-RAMP1; E7.63A, ref [59]", "value": "Reduced CGRP-mediated cAMP potency"}, {"measurement": "Effect compared with WT: cAMP pEC50", "setting": "hCLR-RAMP1; H5.40A, ref [59]", "value": "Reduced CGRP-mediated cAMP pEC50"}, {"measurement": "Effect compared with WT: cAMP production", "setting": "hCLR-RAMP1; K3.30A, ref [59]", "value": "No effect on CGRP mediated cAMP production"}, {"measurement": "Effect compared with WT: cAMP production", "setting": "hCLR-RAMP1; K6.37A, ref [10]", "value": "No effect on CGRP mediated cAMP production"}, {"measurement": "Effect compared with WT: affinity or cAMP production", "setting": "hCLR-RAMP1; N2.52A, ref [59]", "value": "No effect on CGRP affinity or cAMP production"}, {"measurement": "Effect compared with WT: cAMP production", "setting": "hCLR-RAMP1; N5.56A, ref [59]", "value": "No effect on CGRP cAMP mediated production"}, {"measurement": "Effect compared with WT: cAMP potency", "setting": "hCLR-RAMP1; R2.46A, ref [59]", "value": "Reduced CGRP mediated cAMP potency."}, {"measurement": "Effect compared with WT: cAMP pEC50", "setting": "hCLR-RAMP1; R4.64A, ref [59]", "value": "Reduced CGRP mediated cAMP pEC50."}, {"measurement": "function upon mutation of R4.64, in words", "setting": "hCLR-RAMP1; R4.64 mutated, ref [60], [63]", "value": "not CGRP function"}, {"measurement": "reduction in affinity compared with WT", "setting": "hCLR-RAMP1; R6.40A, ref [10]", "value": 5, "unit": "fold"}, {"measurement": "reduction in cAMP production compared with WT", "setting": "hCLR-RAMP1; R6.40A, ref [10]", "value": 30, "unit": "fold"}]}, {"molecule": "secretin: agonist of the secretin receptor", "values": [{"measurement": "Effect compared with WT: cAMP production", "setting": "rSecR; R3.30A", "value": "Reduced secretin-mediated cAMP production"}, {"measurement": "Effect compared with WT: cAMP potency", "setting": "rSecR; R4.64A", "value": "Decreased secretin mediated cAMP potency."}, {"measurement": "Effect compared with WT: cAMP potency", "setting": "SecR", "value": "not cAMP potency"}, {"measurement": "Effect compared with WT: calcium potency", "setting": "SecR", "value": "Decreased secretin mediated calcium potency"}, {"measurement": "Effect compared with WT: affinity or receptor expression", "setting": "hSecR; R6.37A/K6.40A, ref [17]", "value": "no effect on affinity or receptor expression"}, {"measurement": "Effect compared with WT: cAMP and calcium", "setting": "hSecR; R6.37A/K6.40A, ref [17]", "value": "Reduced secretin mediated cAMP and calcium"}, {"measurement": "Effect compared with WT: cAMP production", "setting": "hSecR; R6.37A, ref [8]", "value": "No effect on secretin mediated cAMP production"}]}, {"molecule": "corticotropin-releasing factor [CRF]", "values": [{"measurement": "Effect compared with WT: cAMP potency (Gs)", "setting": "hCRF-1R; K6.37A", "value": "Increased CRF mediated cAMP potency (Gs)"}, {"measurement": "Effect compared with WT: pERK1/2 (Gi)", "setting": "hCRF-1R; K6.37A", "value": "reduced pERK1/2 (Gi)"}]}, {"molecule": "glucagon: peptide agonist of the glucagon receptor", "values": [{"measurement": "Effect compared with WT: affinity", "setting": "hGCGR; K4.64L", "value": "Reduced glucagon affinity"}, {"measurement": "Effect compared with WT: expression and affinity", "setting": "hGCGR; R3.30A", "value": "Reduced expression and glucagon affinity"}, {"measurement": "Effect compared with WT: expression and affinity", "setting": "hGCGR; R5.40A", "value": "Reduced expression and glucagon affinity"}, {"measurement": "Effect compared with WT: potency in CRE reporter activity assay", "setting": "rGCGR; E7.63A", "value": "Enhanced basal activity and enhanced potency in glucagon mediated CRE reporter activity assay"}, {"measurement": "Effect compared with WT: potency in CRE reporter activity assay", "setting": "rGCGR; N7.61A", "value": "Enhanced potency in glucagon mediated CRE reporter activity assay"}, {"measurement": "Effect compared with WT: CRE reporter activity", "setting": "rGCGR; R6.37A", "value": "Enhanced glucagon mediated CRE reporter activity (potency and Emax)"}]}, {"molecule": "B1", "values": [{"measurement": "Effect compared with WT: cAMP", "setting": "oPTH-1R; E7.63 K", "value": "No effect on PTH mediated cAMP"}, {"measurement": "Effect compared with WT: cAMP production", "setting": "oPTH-1R; H2.52A", "value": "No effect on PTH-1 cAMP production."}, {"measurement": "Effect compared with WT: cAMP", "setting": "oPTH-1R; R4.64A", "value": "No effect on PTH mediated cAMP"}]}]}
